Test [1] has as its target T1, human TGR5 (h-TGR5) (Homo sapiens, UniProt Q8TDU6).
T1 construct: expressed in transfected cells
T1 sequence (Q8TDU6 1-330): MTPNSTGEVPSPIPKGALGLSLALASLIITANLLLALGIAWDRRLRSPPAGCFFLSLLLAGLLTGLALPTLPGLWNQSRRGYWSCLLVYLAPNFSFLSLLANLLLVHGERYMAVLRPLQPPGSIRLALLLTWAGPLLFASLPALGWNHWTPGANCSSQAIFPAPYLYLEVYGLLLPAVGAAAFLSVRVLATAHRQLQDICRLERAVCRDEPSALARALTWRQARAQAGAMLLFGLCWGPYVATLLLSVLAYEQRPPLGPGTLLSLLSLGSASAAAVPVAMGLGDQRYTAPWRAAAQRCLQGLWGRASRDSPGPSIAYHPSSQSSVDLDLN
In words: TGR5/CRE-Luciferiase Assay (HEK 293 hTGR5/CRE-Luc cells). Type of test: cell-based. Particulars: h-TGR5 CRE-Luc EC50, Table 1; read-out: CRE-Luc (EC50). Summed up: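 HEK293 cells stably carrying hTGR5 and a CRE-luciferase reporter were exposed to serially diluted compounds (diluted in DMEM with 5% DMSO) for 6 h. Cells were then lysed in luciferase buffer, luminescence was read, and EC50 values were derived from dose-response curves.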

Test [2] deals with T2, h-TGR5 (Homo sapiens, UniProt Q8TDU6).
T2 construct: expressed in transfected cells
T2 sequence (Q8TDU6 1-330): T1 sequence (Q8TDU6 1-330)
In words: TGR5 cAMP Assay using Cisbio cAMP Dynamic2 htrf kit (hTGR5CRE-luc HEK 293 cells). Type of test: cell-based. As to conditions: h-TGR5 cAMP EC50, Table 1; read-out: cAMP (EC50). Summed up: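 […], 4000 hTGR5CRE-luc HEK 293 cells per well, with 0.5 mM IBMX and d2-cAMP, were incubated 30 min at room temperature with compounds in 8-point half-log series, in quadruplicate.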

pEC50: −log10 of the molar value. A value given as a limit tells only on which side of the number the result lay.

For orientation: pEC50 means the EC50 on a negative log10 scale, so that one unit is a factor of ten. As for `CC(C)(O)COc1ccc(CSc2ncc(C(C)(C)c3ccc(Cl)c(Cl)c3)n2-c2ccc(F)cc2)cc1S(N)(=O)=O` [5-[({5-[1-(3,4-dichlorophenyl)-1-methylethyl]-1-(4-fluorophenyl)-1H-imidazol-2-yl}thio)methyl]-2-[(2-hydroxy-2-methylpropyl)oxy]benzenesulfonamide], the negative logarithm of the EC50 (pEC50) in test [1] is more than 7.00; in test [2] it was 6.00 to 7.00.

Turning to `COc1cc(C(C)(C)c2cnc(SCc3c(F)cc(OCCCNC(=N)N)cc3F)n2-c2ccc(F)cc2)ccc1F` [1-(3-{[3,5-difluoro-4-({[5-{1-[4-fluoro-3-(methyloxy)phenyl]-1-methylethyl}-1-(4-fluorophenyl)-1H-imidazol-2-yl]thio}methyl)phenyl]oxy}propyl)guanidine], the negative-log EC50 (pEC50) in test [1] and in test [2] was more than 7.00 in each case.

On to `COc1cc(C(C)(C)c2cnc(SCc3c(F)cc(-c4n[nH]c(=O)o4)cc3Cl)n2-c2ccc(F)cc2)ccc1Cl` [5-[3-chloro-4-({[5-{1-[4-chloro-3-(methyloxy)phenyl]-1-methylethyl}-1-(4-fluorophenyl)-1H-imidazol-2-yl]thio}methyl)-5-fluorophenyl]-1,3,4-oxadiazol-2(3H)-one], for which the negative logarithm of the EC50 (pEC50) in test [1] and in test [2] was more than 7.00 each time.

Turning to `COc1cc(C(C)(C)c2cnc(SCc3ccc(S(=O)(=O)NC(=O)NN4CCCC4)cc3Cl)n2-c2ccc(F)cn2)ccc1Cl` [3-chloro-4-({[5-{1-[4-chloro-3-(methyloxy)phenyl]-1-methylethyl}-1-(5-fluoropyridin-2-yl)-1H-imidazol-2-yl]thio}methyl)-N-[(pyrrolidin-1-ylamino)carbonyl]benzenesulfonamide], the pEC50 in test [1] and in test [2] was 6.00 to 7.00 throughout.

Turning to `COc1cc(C(C)(C)c2cnc(SCc3c(F)cc(S(=O)(=O)NC(=O)NN4CCOCC4)cc3F)n2-c2ccc(F)cn2)ccc1Cl` [4-({[5-{1-[4-chloro-3-(methyloxy)phenyl]-1-methylethyl}-1-(5-fluoropyridin-2-yl)-1H-imidazol-2-yl]thio}methyl)-3,5-difluoro-N-[(morpholin-4-ylamino)carbonyl]benzenesulfonamide], the pEC50 in test [1] and in test [2] was 6.00 to 7.00 in each case.

With `CC(C)(c1ccc(Cl)c(Cl)c1)c1c(Cl)nc(SCc2ccc(-c3nnn[nH]3)c(Cl)c2)n1-c1ccc(F)cc1` [5-{2-chloro-4-[({4-chloro-5-[1-(3,4-dichlorophenyl)-1-methylethyl]-1-(4-fluorophenyl)-1H-imidazol-2-yl}thio)methyl]phenyl}-1H-tetrazole], the pEC50 in test [1] was 6.00 to 7.00; in test [2], 5.00 to 6.00.

On to `CC(C)(c1ccc(S(N)(=O)=O)c(Cl)c1)c1cnc(SCc2c(F)cc(C(=O)O)cc2F)n1-c1ccc(F)c(F)c1` [4-({[5-{1-[4-(aminosulfonyl)-3-chlorophenyl]-1-methylethyl}-1-(3,4-difluorophenyl)-1H-imidazol-2-yl]thio}methyl)-3,5-difluorobenzoic acid], for which the pEC50 in test [1] and in test [2] was more than 7.00 in each case.

With `CC(C)(c1ccc(Cl)c(Cl)c1)c1cnc(SCc2c(F)cc(C(N)=O)cc2F)n1-c1ccc(F)cc1` [4-[({5-[1-(3,4-dichlorophenyl)-1-methylethyl]-1-(4-fluorophenyl)-1H-imidazol-2-yl}thio)methyl]-3,5-difluorobenzamide], the negative-log EC50 (pEC50) in test [1] and in test [2] was 6.00 to 7.00 each time.

For `COc1cc(-n2c(C(C)(C)c3ccc(S(N)(=O)=O)c(Cl)c3)cnc2SCc2c(F)cc(C(=O)NC(CCCNC(=N)N)C(=O)O)cc2Cl)ccc1F` [N-2-[(4-{[(5-{1-[4-(aminosulfonyl)-3-chlorophenyl]-1-methylethyl}-1-[4-fluoro-3-(methyloxy)phenyl]-1H-imidazol-2-yl)thio]methyl}-3-chloro-5-fluorophenyl)carbonyl]-D-arginine], the pEC50 in test [1] and in test [2] was more than 7.00 each time.

As for `CC(C)(c1ccc(Cl)c(Cl)c1)c1cnc(SCc2cc(S(N)(=O)=O)c(Cl)cc2Cl)n1-c1ccc(F)cc1` [2,4-dichloro-5-[({5-[1-(3,4-dichlorophenyl)-1-methylethyl]-1-(4-fluorophenyl)-1H-imidazol-2-yl}thio)methyl]benzenesulfonamide], the pEC50 was more than 7.00 in test [1] and 6.00 to 7.00 in test [2].

`CC(C)(c1ccc(Cl)c(Cl)c1)c1cnc(SCc2cc(-c3nnn[nH]3)ccc2Cl)n1-c1ccc(F)cc1` [5-{4-chloro-3-[({5-[1-(3,4-dichlorophenyl)-1-methylethyl]-1-(4-fluorophenyl)-1H-imidazol-2-yl}thio)methyl]phenyl}-1H-tetrazole]: the negative logarithm of the EC50 (pEC50) in test [1] and in test [2] was 6.00 to 7.00 in each case.

As for `COc1cc(C(C)(C)c2cnc(SCc3c(F)cc(C(=O)NC(CCCNC(=N)N)C(=O)O)cc3Cl)n2-c2ccc(F)cc2)ccc1F` [N-2-{[3-chloro-5-fluoro-4-({[5-{1-[4-fluoro-3-(methyloxy)phenyl]-1-methylethyl}-1-(4-fluorophenyl)-1H-imidazol-2-yl]thio}methyl)phenyl]carbonyl}-D-arginine], the negative logarithm of the EC50 (pEC50) in test [1] and in test [2] was more than 7.00 in each case.

On to `CC(C)(c1ccc(Cl)c(Cl)c1)c1cnc(S(=O)(=O)NCc2c(F)cccc2Cl)n1-c1ccc(F)cc1` [N-[(2-chloro-6-fluorophenyl)methyl]-5-[1-(3,4-dichlorophenyl)-1-methylethyl]-1-(4-fluorophenyl)-1H-imidazole-2-sulfonamide], for which the pEC50 in test [1] and in test [2] was 6.00 to 7.00 in each case.

Take `CC(C)(c1ccc(Cl)c(Cl)c1)c1cnc(SCc2ccc(OCC(=O)O)c(S(N)(=O)=O)c2)n1-c1ccc(F)cc1` [({2-(aminosulfonyl)-4-[({5-[1-(3,4-dichlorophenyl)-1-methylethyl]-1-(4-fluorophenyl)-1H-imidazol-2-yl}thio)methyl]phenyl}oxy)acetic acid]: the pEC50 in test [1] and in test [2] was 6.00 to 7.00 in each case.

On to `COc1cc(-n2c(C(C)(C)c3ccc(F)c(Cl)c3)cnc2SCc2c(F)cc(OCCNC(=N)N)cc2F)ccc1F` [1-[2-({4-[({5-[1-(3-chloro-4-fluorophenyl)-1-methylethyl]-1-[4-fluoro-3-(methyloxy)phenyl]-1H-imidazol-2-yl}thio)methyl]-3,5-difluorophenyl}oxy)ethyl]guanidine], for which the negative logarithm of the EC50 (pEC50) in test [1] and in test [2] was more than 7.00 each time.

Turning to `COc1cc(C(C)(C)c2cnc(SCc3c(F)cc(CCCCCNC(=N)N)cc3F)n2-c2ccc(F)cc2)ccc1Cl` [1-{5-[4-({[5-{1-[4-chloro-3-(methyloxy)pheny1]-1-methylethyl}-1-(4-fluorophenyl)-1H-imidazol-2-yl]thio}methyl)-3,5-difluorophenyl]pentyl}guanidine], the negative-log EC50 (pEC50) in test [1] and in test [2] was more than 7.00 in each case.

In the case of `COc1ccc(C(C)(C)c2cnc(SCc3cc(F)cc(Cl)c3)n2-c2ccc(F)cc2)cc1OC` [5-{1-[3,4-bis(methyloxy)phenyl]-1-methylethyl}-2-{[(3-chloro-5-fluorophenyl)methyl]thio}-1-(4-fluorophenyl)-1H-imidazole], the pEC50 in test [1] and in test [2] was more than 7.00 throughout.

`CC(C)(c1ccc(C#N)c(Cl)c1)c1cnc(SCc2ccc(F)cc2Cl)n1-c1ccc(F)cc1` [2-chloro-4-{1-[2-{[(2-chloro-4-fluorophenyl)methyl]thio}-1-(4-fluorophenyl)-1H-imidazol-5-yl]-1-methylethyl}benzonitrile]: the pEC50 in test [1] and in test [2] was 6.00 to 7.00 in each case.

Take `CC(C)(c1ccc(Cl)c(Cl)c1)c1cnc(SCC2CCN(S(C)(=O)=O)C2)n1-c1ccc(F)cc1` (centres unmarked) [5-[1-(3,4-dichlorophenyl)-1-methylethyl]-1-(4-fluorophenyl)-2-({[1-(methylsulfonyl)pyrrolidin-3-yl]methyl}thio)-1H-imidazole]: the pEC50 in test [1] and in test [2] was 6.00 to 7.00 throughout.

In the case of `COc1cc(-n2c(C(C)(C)c3ccc(Cl)c(Cl)c3)cnc2SCC2CCN(c3nnn[nH]3)CC2)ccc1F` [4-[({5-[1-(3,4-dichlorophenyl)-1-methylethyl]-1-[4-fluoro-3-(methyloxy)phenyl]-1H-imidazol-2-yl}thio)methyl]-1-(1H-tetrazol-5-yl)piperidine], the pEC50 in test [1] and in test [2] was more than 7.00 throughout.

Turning to `COCCOCCOCCOCCOCCOCCOCCOCCOCCOCCOCCOCCOCCOCCNS(=O)(=O)c1cc(F)c(CSc2ncc(C(C)(C)c3ccc(Cl)c(OC)c3)n2-c2ccc(F)cc2)c(Cl)c1` [3-chloro-4-({[5-{1-[4-chloro-3-(methyloxy)phenyl]-1-methylethyl}-1-(4-fluorophenyl)-1H-imidazol-2-yl]thio}methyl)-5-fluoro-N-3,6,9,12,15,18,21,24,27,30,33,36, 39,42-tetradecaoxatritetracont-1-ylbenzenesulfonamide], the pEC50 in test [1] and in test [2] was more than 7.00 throughout.

As for `COc1cc(-n2c(C(C)(C)c3ccc(Cl)c(Cl)c3)cnc2SCc2c(F)cc(C(=O)NCCC(=O)O)cc2F)ccc1F` [N-({4-[({5-[1-(3,4-dichlorophenyl)-1-methylethyl]-1-[4-fluoro-3-(methyloxy)phenyl]-1H-imidazol-2-yl}thio)methyl]-3,5-difluorophenyl}carbonyl)-beta-alanine], the pEC50 in test [1] and in test [2] was more than 7.00 each time.

(Values after patent US8785488B2 (Exelixis Patent Company LLC, priority 2009, dated 2014).)
